The record followed here is ChEMBL document CHEMBL1201862, “PubChem BioAssay data set” (2004).

As a reminder, the Ki is the dissociation constant of the complex between target and ligand, obtained from inhibition or displacement. In general, EC50 refers to the concentration giving half of the maximal effect.

Structures can show the parent of a compound that is named as a salt. Activity calls are given as the source filed them. Some results are limits rather than exact numbers.

Assay [1] addresses Serine/threonine-protein kinase D2 (Homo sapiens, UniProt Q9BZL6). Type of assay: functional.
The target in the next assay is Aurora kinase B (Homo sapiens, UniProt Q96GD4). Type of assay: functional.
In assay [2] the target is Insulin-like growth factor 1 receptor (Homo sapiens, UniProt P08069). Briefly: Navigating the Kinome. Panel member name: IGF1R. Type of assay: functional.
Assay [3] addresses Serine/threonine-protein kinase Chk1 (Homo sapiens, UniProt O14757). The format is functional.
In assay [4] the target is Ribosomal protein S6 kinase beta-1 (Homo sapiens, UniProt P23443). Type of assay: functional.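 Further: measured as one member of a kinome-wide profiling panel.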
The target in assay [5] is Testis-specific serine/threonine-protein kinase 2 (Homo sapiens, UniProt Q96PF2). Type of assay: functional.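 Further: part of the Navigating the Kinome panel, target entry STK22B.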
For assay [6], the target named is Dual specificity protein kinase CLK2 (Homo sapiens, UniProt P49760). The format is functional.
In assay [7] the target is Protein kinase C zeta type (Homo sapiens, UniProt Q05513). Type of assay: functional.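 Further: measured as one member of a broad kinase profiling panel.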
The target in assay [8] is Glycogen synthase kinase-3 beta (Homo sapiens, UniProt P49841). Type of assay: functional.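 Further: value comes from a broad kinome profiling panel, with GSK3B as the panel member.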
The target in assay [9] is 5'-AMP-activated protein kinase catalytic subunit alpha-1 (Homo sapiens, UniProt Q13131). The format is functional.
The target in assay [10] is Serine/threonine-protein kinase Chk2 (Homo sapiens, UniProt O96017). Type of assay: functional.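 Further: CHEK2 entry within a kinome-wide screening panel.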
For assay [11], the target named is Macrophage-stimulating protein receptor (Homo sapiens, UniProt Q04912). Description: Navigating the Kinome. Panel member name: MST1R. The format is functional.
The target in assay [12] is Cyclin-dependent kinase 7 (Homo sapiens, UniProt P50613). Type of assay: functional.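 Further: value comes from a kinome-wide kinase profiling panel in which CDK7 is one member.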
Assay [13] concerns the target Serine/threonine-protein kinase PAK 4 (Homo sapiens, UniProt O96013). Type of assay: functional.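 Further: value obtained within a kinome profiling panel in which PAK4 was one of the panel members.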
Assay [14] concerns the target RAC-alpha serine/threonine-protein kinase (Homo sapiens, UniProt P31749). Type of assay: functional.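 Further: AKT1 affinity measured as one member of a kinome-wide kinase profiling panel.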
The target in assay [15] is Macrophage colony-stimulating factor 1 receptor (Homo sapiens, UniProt P07333). The format is functional.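 Further: value comes from the Navigating the Kinome screening panel, CSF1R member.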
The target of assay [16] is Tyrosine-protein kinase Lyn (Homo sapiens, UniProt P07948). Type of assay: functional.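 Further: lyn as one member of a kinase panel.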
In assay [17] the target is Cyclin-dependent kinase 5 (Homo sapiens, UniProt Q00535). Type of assay: functional.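 Further: CDK5 measured as one member of a kinase profiling panel.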
The target in assay [18] is 3-phosphoinositide-dependent protein kinase 1 (Homo sapiens, UniProt O15530). The format is functional.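 Further: value comes from the Navigating the Kinome panel, PDPK1 member.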
For assay [19], the target named is Mitogen-activated protein kinase 8 (Homo sapiens, UniProt P45983). Type of assay: functional.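 Further: value comes from one member of a kinome-wide kinase profiling panel.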
Assay [20] deals with Serine/threonine-protein kinase pim-3 (Homo sapiens, UniProt Q86V86). The format is functional.
In assay [21] the target is Phosphorylase b kinase gamma catalytic chain, liver/testis isoform (Homo sapiens, UniProt P15735). Type of assay: functional.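 Further: PHKG2 measured as one member of a kinome-wide kinase panel.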
The next assay deals with Aurora kinase A (Homo sapiens, UniProt O14965). Type of assay: functional.
Assay [22] concerns the target Polyadenylate-binding protein 1 (Homo sapiens, UniProt P11940). Briefly: PABP1 MLLE–PAM2 interaction inhibitors, dose response, miRNA deadenylation inhibitor project, biochemical, fluorescence polarization, Cy5-PAM2 peptide, secondary (AID 602260). The format is functional. As to conditions: read-out: IC50_Mean. In general terms: Fluorescence polarisation rises when a labelled molecule tumbles more slowly, as on binding a larger partner.

In assay [23] the test system is Streptococcus sp. 'group A'. Briefly: growth inhibition of control SK(-) GAS strain, dose response, counter-screen for streptokinase expression inhibitor project, luminescence, kanamycin, BacTiterGlo, confirmation (AID 1900). Type of assay: functional, organism-based. In general terms: Counterscreens check selectivity or assay interference.
In a further assay the test system is HEK293. Briefly: HEK cell cytotoxicity by LDH release, dose response, cytotoxicity control for IDE activator project, fluorescence, HEK cells (AID 588440).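 Further: cytotoxicity by LDH release measuring loss of membrane integrity.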 The format is functional, cell-based. As to conditions: Homo sapiens.
Assay [24] concerns the target T1, Mannose-6-phosphate isomerase (Homo sapiens, UniProt P34949).
T1 sequence (P34949 whole entry): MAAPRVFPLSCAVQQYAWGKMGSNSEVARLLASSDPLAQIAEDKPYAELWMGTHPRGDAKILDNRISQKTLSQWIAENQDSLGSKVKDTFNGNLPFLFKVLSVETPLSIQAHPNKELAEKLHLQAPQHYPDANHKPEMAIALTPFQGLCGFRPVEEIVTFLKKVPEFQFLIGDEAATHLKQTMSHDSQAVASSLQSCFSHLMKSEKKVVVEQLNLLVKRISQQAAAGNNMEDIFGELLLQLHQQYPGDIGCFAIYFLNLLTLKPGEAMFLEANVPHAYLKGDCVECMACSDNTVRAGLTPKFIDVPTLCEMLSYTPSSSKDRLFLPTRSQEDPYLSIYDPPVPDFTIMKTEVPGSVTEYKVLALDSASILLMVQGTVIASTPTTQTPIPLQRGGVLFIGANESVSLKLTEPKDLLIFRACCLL
Briefly: human PMI inhibitors, high substrate, primary screen, biochemical, fluorescence intensity, high mannose 6-phosphate (AID 1220).

The nature of assay [25]: Luminescence Cell-Based Dose Response to Identify Activators of 5'UTR Stem-Loop Driven Prion Protein mRNA Translation in H4-C Neuroglioblastoma Cells. [Related pubchem assays: 1829 (Project Summary), 1814 (Primary HTS)]. The format is functional.
A short description of assay [26]: Luminescence Cell-Based Dose Confirmation HTS to Identify Activators of 5'UTR Stem-Loop Driven Alpha-Synuclein mRNA Translation in H4 Neuroglioblastoma Cells. [Related pubchem assays: 1829 (Project Summary), 1814 (Primary HTS)]. Type of assay: functional.
For assay [27], the target named is Intestinal-type alkaline phosphatase (Mus musculus, UniProt P24822). Briefly: PubChem AID 488874. The format is functional.

Sequence of Tyrosine-protein kinase Lyn (P07948 whole entry): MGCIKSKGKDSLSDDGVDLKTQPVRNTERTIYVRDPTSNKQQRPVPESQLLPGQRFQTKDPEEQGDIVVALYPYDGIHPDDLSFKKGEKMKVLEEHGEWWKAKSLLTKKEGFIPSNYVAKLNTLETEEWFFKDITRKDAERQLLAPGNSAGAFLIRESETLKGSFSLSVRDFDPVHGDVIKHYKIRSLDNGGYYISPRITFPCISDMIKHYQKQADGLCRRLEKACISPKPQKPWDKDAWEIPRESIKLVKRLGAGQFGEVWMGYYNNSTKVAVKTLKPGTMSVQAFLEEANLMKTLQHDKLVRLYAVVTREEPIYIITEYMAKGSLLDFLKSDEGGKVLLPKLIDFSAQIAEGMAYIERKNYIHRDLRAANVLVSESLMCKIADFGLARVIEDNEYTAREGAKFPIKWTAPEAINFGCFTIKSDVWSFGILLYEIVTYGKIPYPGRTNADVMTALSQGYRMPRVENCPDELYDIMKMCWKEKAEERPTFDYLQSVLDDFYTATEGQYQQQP
Sequence of Dual specificity protein kinase CLK2 (P49760 whole entry): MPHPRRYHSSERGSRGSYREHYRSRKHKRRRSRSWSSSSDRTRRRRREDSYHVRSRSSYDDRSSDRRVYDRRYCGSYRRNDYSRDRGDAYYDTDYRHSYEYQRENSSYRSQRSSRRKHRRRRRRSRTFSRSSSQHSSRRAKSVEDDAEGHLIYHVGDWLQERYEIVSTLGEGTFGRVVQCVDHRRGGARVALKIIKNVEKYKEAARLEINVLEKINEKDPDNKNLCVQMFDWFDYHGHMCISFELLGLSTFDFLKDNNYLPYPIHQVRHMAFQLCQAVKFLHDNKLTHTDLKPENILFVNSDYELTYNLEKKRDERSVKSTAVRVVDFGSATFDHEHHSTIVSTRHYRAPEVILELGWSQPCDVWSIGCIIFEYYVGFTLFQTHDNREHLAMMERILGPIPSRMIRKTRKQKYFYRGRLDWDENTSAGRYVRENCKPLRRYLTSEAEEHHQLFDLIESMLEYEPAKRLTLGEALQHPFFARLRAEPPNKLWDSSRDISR
Sequence of Phosphorylase b kinase gamma catalytic chain, liver/testis isoform (P15735 whole entry, canonical isoform): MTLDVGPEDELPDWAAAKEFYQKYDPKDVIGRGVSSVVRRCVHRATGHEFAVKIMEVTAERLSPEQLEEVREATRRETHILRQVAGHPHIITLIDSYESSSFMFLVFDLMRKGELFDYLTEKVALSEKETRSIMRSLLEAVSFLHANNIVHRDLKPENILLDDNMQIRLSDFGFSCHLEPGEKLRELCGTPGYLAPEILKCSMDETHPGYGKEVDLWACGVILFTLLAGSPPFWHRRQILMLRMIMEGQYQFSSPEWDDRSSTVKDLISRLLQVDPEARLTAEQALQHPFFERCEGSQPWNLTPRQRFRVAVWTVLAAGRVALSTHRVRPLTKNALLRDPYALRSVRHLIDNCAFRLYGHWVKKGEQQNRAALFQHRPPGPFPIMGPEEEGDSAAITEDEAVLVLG
Sequence of Protein kinase C zeta type (Q05513 whole entry): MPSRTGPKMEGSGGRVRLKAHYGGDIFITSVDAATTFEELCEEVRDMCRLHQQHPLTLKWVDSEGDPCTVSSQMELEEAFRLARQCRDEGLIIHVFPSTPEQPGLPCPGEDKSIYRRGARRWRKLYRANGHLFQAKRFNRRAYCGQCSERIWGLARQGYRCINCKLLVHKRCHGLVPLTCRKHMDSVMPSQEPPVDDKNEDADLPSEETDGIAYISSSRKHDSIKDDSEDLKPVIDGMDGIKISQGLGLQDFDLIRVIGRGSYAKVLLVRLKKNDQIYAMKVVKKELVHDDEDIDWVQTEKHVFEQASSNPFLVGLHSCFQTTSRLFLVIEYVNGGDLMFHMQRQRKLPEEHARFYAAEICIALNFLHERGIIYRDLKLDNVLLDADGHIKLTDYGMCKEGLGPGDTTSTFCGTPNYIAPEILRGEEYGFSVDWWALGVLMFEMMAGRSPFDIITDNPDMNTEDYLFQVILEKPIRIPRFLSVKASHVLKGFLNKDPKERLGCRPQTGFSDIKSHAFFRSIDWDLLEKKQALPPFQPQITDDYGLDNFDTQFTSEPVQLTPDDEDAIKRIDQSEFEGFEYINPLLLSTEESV
Sequence of Serine/threonine-protein kinase PAK 4 (O96013 whole entry): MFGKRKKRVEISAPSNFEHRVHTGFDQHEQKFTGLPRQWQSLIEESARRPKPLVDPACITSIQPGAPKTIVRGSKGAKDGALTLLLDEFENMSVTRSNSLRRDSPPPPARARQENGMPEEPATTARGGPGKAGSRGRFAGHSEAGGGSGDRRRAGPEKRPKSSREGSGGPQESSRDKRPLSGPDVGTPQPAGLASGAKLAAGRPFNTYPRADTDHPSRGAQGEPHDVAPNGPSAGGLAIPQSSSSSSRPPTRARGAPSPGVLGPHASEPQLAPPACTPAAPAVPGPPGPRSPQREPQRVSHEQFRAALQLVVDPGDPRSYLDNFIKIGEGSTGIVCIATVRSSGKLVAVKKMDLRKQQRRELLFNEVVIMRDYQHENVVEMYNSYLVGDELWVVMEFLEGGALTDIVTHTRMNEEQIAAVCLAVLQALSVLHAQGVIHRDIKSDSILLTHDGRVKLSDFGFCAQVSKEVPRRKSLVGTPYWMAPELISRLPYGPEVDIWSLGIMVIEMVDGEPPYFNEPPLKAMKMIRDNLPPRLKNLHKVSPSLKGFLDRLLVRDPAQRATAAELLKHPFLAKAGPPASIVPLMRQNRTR
Sequence of Aurora kinase B (Q96GD4 whole entry): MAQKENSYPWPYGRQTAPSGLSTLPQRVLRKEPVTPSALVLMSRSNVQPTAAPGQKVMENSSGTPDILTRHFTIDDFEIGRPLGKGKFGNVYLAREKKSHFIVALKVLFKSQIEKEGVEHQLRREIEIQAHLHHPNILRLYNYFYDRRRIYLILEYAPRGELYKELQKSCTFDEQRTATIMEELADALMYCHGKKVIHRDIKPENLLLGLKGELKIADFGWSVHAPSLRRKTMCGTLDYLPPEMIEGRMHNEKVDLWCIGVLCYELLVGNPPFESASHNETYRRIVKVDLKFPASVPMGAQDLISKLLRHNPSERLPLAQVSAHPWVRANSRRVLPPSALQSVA
Sequence of Macrophage colony-stimulating factor 1 receptor (P07333 whole entry): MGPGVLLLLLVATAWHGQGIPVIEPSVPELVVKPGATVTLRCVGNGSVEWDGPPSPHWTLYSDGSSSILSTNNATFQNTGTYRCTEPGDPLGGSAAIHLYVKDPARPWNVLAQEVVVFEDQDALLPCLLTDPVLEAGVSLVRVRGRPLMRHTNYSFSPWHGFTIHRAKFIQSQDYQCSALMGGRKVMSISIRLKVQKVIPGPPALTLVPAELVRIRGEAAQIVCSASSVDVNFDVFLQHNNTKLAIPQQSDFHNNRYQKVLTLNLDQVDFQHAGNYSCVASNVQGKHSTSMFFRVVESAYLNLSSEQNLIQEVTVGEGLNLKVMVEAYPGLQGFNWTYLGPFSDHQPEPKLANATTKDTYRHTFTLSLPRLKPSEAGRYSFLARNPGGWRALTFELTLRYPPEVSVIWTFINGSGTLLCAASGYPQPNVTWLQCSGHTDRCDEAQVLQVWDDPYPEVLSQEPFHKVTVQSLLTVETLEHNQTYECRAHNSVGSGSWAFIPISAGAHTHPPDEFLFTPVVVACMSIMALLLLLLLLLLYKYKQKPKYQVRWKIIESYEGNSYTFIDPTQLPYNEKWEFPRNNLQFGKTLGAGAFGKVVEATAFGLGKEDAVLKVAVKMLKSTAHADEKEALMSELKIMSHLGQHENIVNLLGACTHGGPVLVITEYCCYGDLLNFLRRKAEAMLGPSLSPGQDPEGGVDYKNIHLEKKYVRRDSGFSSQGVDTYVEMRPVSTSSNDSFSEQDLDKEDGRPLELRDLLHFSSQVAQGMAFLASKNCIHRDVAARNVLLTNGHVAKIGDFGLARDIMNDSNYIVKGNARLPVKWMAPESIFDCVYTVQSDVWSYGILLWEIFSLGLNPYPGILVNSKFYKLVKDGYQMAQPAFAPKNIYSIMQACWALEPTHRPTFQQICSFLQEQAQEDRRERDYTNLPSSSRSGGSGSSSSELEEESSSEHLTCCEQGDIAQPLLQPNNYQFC
Sequence of Aurora kinase A (O14965 whole entry): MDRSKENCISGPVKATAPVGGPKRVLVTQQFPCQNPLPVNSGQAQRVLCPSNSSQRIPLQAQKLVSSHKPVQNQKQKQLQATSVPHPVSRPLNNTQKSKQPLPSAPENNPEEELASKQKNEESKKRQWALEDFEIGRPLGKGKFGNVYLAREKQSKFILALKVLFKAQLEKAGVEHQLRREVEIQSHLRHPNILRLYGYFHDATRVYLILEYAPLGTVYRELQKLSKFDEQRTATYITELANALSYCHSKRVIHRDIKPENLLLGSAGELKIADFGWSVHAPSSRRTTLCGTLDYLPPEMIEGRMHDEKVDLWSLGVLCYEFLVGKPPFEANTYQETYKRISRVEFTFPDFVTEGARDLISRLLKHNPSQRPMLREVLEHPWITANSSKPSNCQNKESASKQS
Sequence of Glycogen synthase kinase-3 beta (P49841 whole entry): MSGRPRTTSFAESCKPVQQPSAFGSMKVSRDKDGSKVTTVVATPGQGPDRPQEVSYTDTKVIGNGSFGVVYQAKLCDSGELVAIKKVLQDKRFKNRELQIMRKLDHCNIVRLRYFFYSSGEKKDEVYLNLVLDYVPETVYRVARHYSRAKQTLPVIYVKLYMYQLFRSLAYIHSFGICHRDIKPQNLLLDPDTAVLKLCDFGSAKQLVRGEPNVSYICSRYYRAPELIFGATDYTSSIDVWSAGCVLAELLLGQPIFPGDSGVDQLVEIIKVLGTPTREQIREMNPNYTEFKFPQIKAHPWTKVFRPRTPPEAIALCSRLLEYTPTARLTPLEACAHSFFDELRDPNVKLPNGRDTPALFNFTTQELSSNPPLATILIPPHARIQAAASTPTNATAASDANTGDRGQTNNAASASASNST

Turning to `CN1CCN(c2nc(C3=C(c4c[nH]c5ccccc45)C(=O)NC3=O)c3ccccc3n2)CC1` [SOTRASTAURIN], the Ki in assay [1] is > 10 µM (inactive); at Aurora kinase B, > 5.01 µM (inactive); in [2], > 2 µM (inactive); in [3] it was > 5.01 µM (inactive); in assay [4], 0.158 µM (active); in assay [5], > 1.58 µM (inactive). Further, the Ki in assay [6] is > 2.51 µM (inactive); in [7], 0.0631 µM (active); in assay [8] it was 0.2 µM (active); in assay [9], 0.631 µM (active); in [10] it was > 1.58 µM (inactive); in [11] it was 0.158 µM (active). In addition, the Ki was > 3.98 µM (inactive) in assay [12]; > 5.01 µM (inactive) in assay [13]; 0.501 µM (active) in [14]; > 2.51 µM (inactive) in assay [15]; > 1.58 µM (inactive) in assay [16]; 3.16 µM (active) in [17]. Also, the Ki in [18] was 1.58 µM (active); in assay [19], > 3.98 µM (inactive); in assay [20], 0.316 µM (active); in assay [21], > 5.01 µM (inactive); on Aurora kinase A, > 1.58 µM (inactive).

Turning to `CC[C@@H](CO)NC(=O)[C@@H]1C=C2c3cccc4c3c(cn4C)C[C@H]2N(C)C1` [METHYSERGIDE MALEATE], the IC50 in [22] is > 66 µM (inactive).

On to `CCCCCCCCCCOC(=O)C[n+]1c(COc2ccc(C)cc2)n(C)c2ccccc21`, for which the EC50 in assay [23] was 6.2 µM (active). In addition, the IC50 with HEK293 was 7.28 µM (active).

On to `CCC(C)n1c(NC(=O)c2ccccc2)c(C#N)c2nc3ccccc3nc21` (stereo not given), for which the IC50 in [24] is > 50 µM (not active).

As for `CCN1/C(=C\c2ccc3ccccc3[n+]2CC)Sc2cc(C)ccc21`, the EC50 was > 12 µM (not active) in assay [25] and 15.7 µM (active) in assay [26]. In addition, in [27], the IC50 is 20.8 µM (active).
